Among the data in BindingDB's records for patent US9139585 (Merck Sharp & Dohme, 2015) are IC50 values, retold here.

Each structure is given as a SMILES string.

The experiment has as its target T1, ATP-sensitive inward rectifier potassium channel 1 (Homo sapiens, UniProt P48048).
T1 sequence (P48048 whole entry): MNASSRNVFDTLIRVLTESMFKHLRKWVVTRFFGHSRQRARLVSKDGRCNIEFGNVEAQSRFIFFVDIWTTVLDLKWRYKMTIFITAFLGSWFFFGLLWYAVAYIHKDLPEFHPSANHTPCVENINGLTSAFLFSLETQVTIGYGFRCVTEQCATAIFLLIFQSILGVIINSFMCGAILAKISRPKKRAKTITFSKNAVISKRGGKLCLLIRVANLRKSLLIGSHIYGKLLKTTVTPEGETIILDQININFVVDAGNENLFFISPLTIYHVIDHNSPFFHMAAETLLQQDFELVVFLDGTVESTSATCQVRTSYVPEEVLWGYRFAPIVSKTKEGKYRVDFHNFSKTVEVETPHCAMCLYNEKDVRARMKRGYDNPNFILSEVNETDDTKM
Kind of experiment: Electrophysiology Assay. The following applies: pH 7.4; 37 °C. Here is the method: Chinese hamster ovary cells stably expressing Kir1.1 channels were maintained in T-75 flasks in cell culture media in a humidified 10% CO2 incubator at 37 °C. Prior to an experiment, Kir1.1 expression was induced by overnight incubation with 1 mM sodium butyrate. […] After centrifugation, the cell pellet was resuspended in approximately 4.0 ml of bath solution and placed in the IonWorks instrument. The intracellular solution consisted of (in mM): 80 K gluconate, 40 KCl, 20 KF, 3.2 MgCl2, 3 EGTA, 5 Hepes, pH 7.

What is called IC50 is the point on the concentration scale where inhibition reaches its midpoint. A high value points to a need for much substance. `Cc1c([C@@H](O)CN2CCN(C[C@H](O)c3ccc4c(c3)CCS4(=O)=O)CC2)ccc2c1COC2=O` [US9139585, 43B] displayed an IC50 of 95 nM.
